Laboratory results taken from US11524935B2, “Methods for treating attention-deficit/hyperactivity disorder” (priority 2009, dated 2022).
“Also recorded” adds a separate entry of the source. Where a name gives a salt, the structure may show the parent alone.

How the values were obtained:
[1] = system: homozygous mutant dopamine transporter KO mice; experiment: spontaneous activity in the open field, dopamine transporter KO mice; assay type: in vivo, mouse
Protocol: Male and female wild-type and homozygous mutant dopamine transporter KO mice (n−10 mice/genotype/agent) were tested for spontaneous activity in the open field following a single injection of the vehicle or compound. […] All drugs, were given in a volume of 5 mL/kg. Animals were returned to the open field for an additional 90 min. Spontaneous activity was evaluated in an automated Omnitech Digiscan apparatus (Accuscan Instruments, Columbus, Ohio). Activity was summated at 5 min intervals over the 2 h period of testing. Horizontal activity or locomotion was Measured in terms of toe total distance covered in cm, vertical activity or rearing was expressed in terms of the total numbers of vertical beam breaks, and stereotypy was quantified in terms of repetitive breaks of a given beam or beams with intervals of less than 1 sec. For the analyses, 10 WT and 10 KO mice were run in each of the treatment groups with approximately equal numbers of males and females assigned to each group. Data were analyzed by the Statistical Package for Social Sciences programs (version 11.0 for Windows; SPSS Science, Chicago, Ill.). The results lot each dependent variable were analyzed by repeated analyses of variance. (RMANOVA) for within subjects effects (group differences over time) and between-subjects effects (tests of main effects and interactions). Bonferroni corrected pair-wise comparisons were used as the post-hoc tests. A p<0.05 was considered significant.

Long-Evans rats = experiment: reversal of a visual discrimination (operant, Phase II reversal training); assay type: in vivo, rat
Protocol: Forty adult male Long-Evans rats (Charles River Laboratories, Wilmington, Mass.) approximately 250 g at the start of training were used as subjects in this study. Each shipment of rats went through five-day isolation prior to introduction to the general population. Rats were allowed a minimum of one additional week acclimation before operant training began.
Test compound was dissolved in sterile 0.9% saline at 3.0, 10.0, and 30.0 mg/mL, D-amphetamine, the reference compound, was also dissolved in 0.9% sterile saline at 1.0 mg/mL of the amphetamine salt.
After operant training began, rats were housed individually. Access to food was restricted to 12-20 grams per day to maintain animals at 85-90% free feeding body weight (relative to non-restricted rats). Rats were never deprived of water and continued gain weight while in the study.
After animals reached the training criteria on Phase I of the study, they were designated to one of the treatment groups; groups were matched for performance (days to criterion per in Phase I. The study was a mixed design (dose levels×repeated training sessions). The five dose levels were 1, 3, and 10 mg/kg test compound, 0.9 percent saline (vehicle) and 1.0 mg/kg d-amphetamine sulfate (reference compound) all delivered intraperitoneal (IP) at 1.0 mL/kg.
Animals were trained in a set of 10 operant testing chambers (Med Associates) containing two retractable response levers on the front wall. There were two stimulus lights in the chamber, one situated over each lever. The food magazine is located between the two response levers on the front wall and food delivery is signaled with a magazine light. Retrieval of the food pellet is detected by a photosensor within the food magazine. Dim illumination of the chamber is provided by a houselight over the center of the front wall.
Initially animals were shaped to press a lever for food. During this phase, both levers were extended into the chamber and the animal was rewarded with a 45 mg pellet for pressing a lever. The use of a side bias is prevented by retracting a lever once it exceeds five presses beyond the number of presses on the opposite lever. After […] consecutive days with 100 lever presses subjects were moved to Phase I of the study. In this phase, animals had to learn to press the lever beneath the illuminated signal light. On each trial, one of the signal lights (randomly chosen) was illuminated for 1.0 sec prior to presentation of the levers (30.0 sec limited hold). […] After either a correct or incorrect press, or an omission, the levers were retracted for the duration of the variable inter-trial-interval (ITT; 5 s+/−2 s). After stable responding (two consecutive days better than 80% correct) was established in this phase, animals began training in the drug administration portion of the experiment (Phase II).
In Phase II, animals were divided into five groups matched on percent accuracy and number of trials to criterion. Animals in each group were dosed with one of three doses of test compound ([…], IP), amphetamine (1.0 mg/kg, IP), or with the vehicle (saline) one hour prior to behavioral training. In Phase II the discrimination was reversed from that of Phase I such that animals were now rewarded for pressing the lever distal to the cue light. Animals were dosed daily approximately 60 min prior to training. Training continued until ad animals achieved two consecutive days above 80% correct on the new discrimination.
Data were analyzed using SPSS 12.0 for Windows (SSPS Inc., Chicago, Ill.). A mixed between groups, repeated measures ANOVA was conducted cm response accuracy data. A simple one-way ANOVA was conducted on the trials to criteria data from Phase II.

wild-type mice = experiment: spontaneous activity in the open field, wild-type mice; assay type: in vivo, mouse; details: 2 mg/kg SC, relative to vehicle controls
Protocol: Male and female wild-type and homozygous mutant dopamine transporter KO mice (n−10 mice/genotype/agent) were tested for spontaneous activity in the open field following a single injection of the vehicle or compound. Mice were placed into the open field for 30 min and administered SC the vehicle (sterile water) 2 mg/kg amphetamine, or three concentrations of the test compound (10, 30, 100 mg/kg). All drugs, were given in a volume of 5 mL/kg. Animals were returned to the open field for an additional 90 min. Spontaneous activity was evaluated in an automated Omnitech Digiscan apparatus (Accuscan Instruments, Columbus, Ohio). Activity was summated at 5 min intervals over the 2 h period of testing. Horizontal activity or locomotion was Measured in terms of toe total distance covered in cm, vertical activity or rearing was expressed in terms of the total numbers of vertical beam breaks, and stereotypy was quantified in terms of repetitive breaks of a given beam or beams with intervals of less than 1 sec. For the analyses, 10 WT and 10 KO mice were run in each of the treatment groups with approximately equal numbers of males and females assigned to each group. Data were analyzed by the Statistical Package for Social Sciences programs (version 11.0 for Windows; SPSS Science, Chicago, Ill.). The results lot each dependent variable were analyzed by repeated analyses of variance. […]

[2] = biological target: T1, human serotonin transporter (Homo sapiens, UniProt P31645); experiment: inhibition of [125I]RTI-55 binding to hSERT in HEK293 cell membranes; details: HEK-hSERT cells
T1 construct: expressed in transfected cells; host or cells: HEK293
T1 sequence (P31645 whole entry): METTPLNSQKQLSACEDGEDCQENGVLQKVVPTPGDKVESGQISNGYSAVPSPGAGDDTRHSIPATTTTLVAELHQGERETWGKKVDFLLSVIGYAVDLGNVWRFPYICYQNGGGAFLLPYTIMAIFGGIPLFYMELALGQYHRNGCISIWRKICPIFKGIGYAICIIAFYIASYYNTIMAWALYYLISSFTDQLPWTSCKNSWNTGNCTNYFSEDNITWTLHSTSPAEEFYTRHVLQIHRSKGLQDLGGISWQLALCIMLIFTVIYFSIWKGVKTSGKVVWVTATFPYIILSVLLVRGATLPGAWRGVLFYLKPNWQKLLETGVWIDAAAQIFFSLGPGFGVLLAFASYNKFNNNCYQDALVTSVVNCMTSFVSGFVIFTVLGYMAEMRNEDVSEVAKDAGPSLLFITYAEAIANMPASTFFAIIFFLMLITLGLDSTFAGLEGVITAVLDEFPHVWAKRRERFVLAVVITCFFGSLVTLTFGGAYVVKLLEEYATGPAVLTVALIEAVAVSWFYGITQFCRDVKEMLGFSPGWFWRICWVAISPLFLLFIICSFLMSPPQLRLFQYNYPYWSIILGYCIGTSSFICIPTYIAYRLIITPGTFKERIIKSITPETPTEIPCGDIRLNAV

[3] = system: extracellular monoaminergic transmitter levels; experiment: in vivo brain microdialysis in prefrontal cortical and striatal brain areas of freely-moving rats; set-up: species or system rat
Protocol: Brain dialysates were collected from male Sprague-Dawey rats, which had been chronically implanted with cortical and striatal microdialysis guide cannulae and probes. The effects of different doses of test compound (10 and 30 mg/kg, administered subcutaneously) or vehicle (saline, 0.9% NaCl) were evaluated in three 50 baseline samples and eight consecutive 50 minute post-administration samples. The levels of dopamine, norepinephrine and serotonin for the two different brain areas were analyzed using HPLC/PCD analysis to determine any effects of the compound.
In FIGS. 4 and 5, results are expressed as the average percentage change compared to the individual's average baseline value. The arrow indicates the time of administration of test compound. The average value (and corresponding S.E.M.) are shown for each 50 minute sample period of n=12 rats for each group (NB: individual data points may be based on fewer samples owing to incidental loss of dialysate samples).

[4] = biological target: T2, human dopamine transporter (Homo sapiens, UniProt Q01959); experiment: inhibition of [125I]RTI-55 binding to hDAT in HEK293 cell membranes; details: HEK-hDAT cells
T2 construct: expressed in transfected cells; host or cells: HEK293
T2 sequence (Q01959 whole entry): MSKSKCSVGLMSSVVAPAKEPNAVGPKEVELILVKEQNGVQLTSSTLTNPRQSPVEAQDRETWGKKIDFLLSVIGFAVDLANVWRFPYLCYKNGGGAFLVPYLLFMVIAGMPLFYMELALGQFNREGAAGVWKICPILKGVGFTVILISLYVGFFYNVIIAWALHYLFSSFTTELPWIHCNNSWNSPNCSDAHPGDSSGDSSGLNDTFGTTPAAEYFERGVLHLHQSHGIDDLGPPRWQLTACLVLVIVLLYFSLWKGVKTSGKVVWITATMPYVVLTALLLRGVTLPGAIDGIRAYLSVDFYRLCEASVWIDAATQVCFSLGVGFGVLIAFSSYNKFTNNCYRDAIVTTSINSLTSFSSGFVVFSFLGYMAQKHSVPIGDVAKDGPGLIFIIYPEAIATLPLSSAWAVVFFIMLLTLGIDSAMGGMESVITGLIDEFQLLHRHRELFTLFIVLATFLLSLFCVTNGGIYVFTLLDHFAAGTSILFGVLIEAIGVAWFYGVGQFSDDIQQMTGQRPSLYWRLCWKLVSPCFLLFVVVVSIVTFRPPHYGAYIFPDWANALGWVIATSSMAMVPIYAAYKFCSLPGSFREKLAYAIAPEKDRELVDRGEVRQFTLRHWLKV

[5] = biological target: T3, human norepinephrine transporter (Homo sapiens, UniProt P23975); assay type: binding; details: HEK-hNET cells
T3 construct: expressed in transfected cells; host or cells: HEK293
T3 sequence (P23975 whole entry): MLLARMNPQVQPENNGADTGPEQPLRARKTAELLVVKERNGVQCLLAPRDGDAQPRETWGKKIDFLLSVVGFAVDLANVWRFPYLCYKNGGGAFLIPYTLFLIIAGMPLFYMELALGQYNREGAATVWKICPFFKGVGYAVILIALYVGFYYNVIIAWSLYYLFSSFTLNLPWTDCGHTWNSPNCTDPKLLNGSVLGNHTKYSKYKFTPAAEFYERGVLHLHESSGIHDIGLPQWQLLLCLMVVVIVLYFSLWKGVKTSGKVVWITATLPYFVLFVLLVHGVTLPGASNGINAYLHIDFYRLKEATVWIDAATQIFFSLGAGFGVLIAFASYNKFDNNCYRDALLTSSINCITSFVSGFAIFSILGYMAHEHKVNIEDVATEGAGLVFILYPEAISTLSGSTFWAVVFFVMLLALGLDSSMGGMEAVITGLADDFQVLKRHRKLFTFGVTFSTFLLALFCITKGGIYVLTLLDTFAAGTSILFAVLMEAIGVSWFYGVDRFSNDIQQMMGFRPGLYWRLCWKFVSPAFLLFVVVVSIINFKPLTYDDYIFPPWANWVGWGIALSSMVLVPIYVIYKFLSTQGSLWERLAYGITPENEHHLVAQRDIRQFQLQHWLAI

[6] = 1.0 mg/kg IP daily (d-amphetamine sulfate), vs vehicle

Structure (SMILES) | locomotor, rearing and stereotypical activities ([1]; 2 mg/kg SC, relative to vehicle controls) | number of sessions (trials) required to reach criteria in Phase II (Long-Evans rats; [6]) | percent accuracy during Phase II reversal training (Long-Evans rats; [6]) | locomotor, rearing and stereotypical activities (wild-type mice) | Hill coefficient [2] | locomotor, rearing and stereotypical activities ([1]; 100 mg/kg SC, compared with 2 mg/kg amphetamine) | locomotor, rearing and stereotypical activities ([1]; 10, 30, 100 mg/kg SC single injection, 90 min post-injection) | percent accuracy during Phase II reversal training (Long-Evans rats; 3.0 mg/kg IP daily, one hour prior to training, vs vehicle) | number of sessions (trials) required to reach criteria in Phase II (Long-Evans rats; 3.0 mg/kg IP daily, vs vehicle) | percent accuracy during Phase II reversal training (Long-Evans rats; 10.0 mg/kg IP daily, one hour prior to training) | number of sessions (trials) required to reach criteria in Phase II (Long-Evans rats; 10.0 mg/kg IP daily, vs vehicle) | percent accuracy during Phase II reversal training (Long-Evans rats; 30.0 mg/kg IP daily, one hour prior to training, vs vehicle) | number of sessions (trials) required to reach criteria in Phase II (Long-Evans rats; 30.0 mg/kg IP daily, vs vehicle) | extracellular neurotransmitter levels (dopamine, norepinephrine, serotonin) ([3]; 10 mg/kg s.c., striatum and prefrontal cortex) | extracellular dopamine concentrations in the striatum ([3]; 30 mg/kg s.c.) | extracellular norepinephrine concentrations in the prefrontal cortex ([3]; 30 mg/kg s.c.) | other transmitters investigated (extracellular levels) ([3]; 30 mg/kg s.c.) | Hill coefficient [4] | Hill coefficient [5]
C[C@H](N)Cc1ccccc1 [amphetamine, d-amphetamine sulfate, reference compound] | decreased them in KO animals | needed fewer trials to reach criterion levels of performance | better accuracy scores | increased locomotor, rearing and stereotypical activities |  |  |  |  |  |  |  |  |  |  |  |  |  |  | 
NC(=O)OC[C@H](N)Cc1ccccc1 [Test Compound, O-carbamoyl-(D)-phenylalaninol] |  |  |  |  | −2.28 ± 0.05 | suppressed activities more efficiently than amphetamine | selectively reduced activity of the KO mice in a dose-dependent manner; also recorded: reduced activities in a dose-dependent fashion | better accuracy scores | needed fewer trials to reach criterion levels of performance | lower than the 3.0, and 30.0 dose of test compound | did not differ from the vehicle group | better accuracy scores | needed fewer trials to reach criterion levels of performance | no consistent effect | increases | increases | without having any significant affect | −0.77 ± 0.12 | −1.45 ± 0.34
